These results are taken from patent US6943148B1, “Methods for delivering therapeutics across blood-barrier and for altering receptor binding affinity” (Nobex Corporation, priority 1998, dated 2005).

Where a SMILES comes first, the peptide text is derived from it. Where no end group is shown, it is not given here. The star is where a group is joined. X1 = CCCCCCCCCCCCCCCCOCCOCCOC(=O)*

One series concerns Sprague-Dawley rats. In words: Rat paw-hot plate test. Type of series: in vivo. The note with it: for Mean Analgesia as Compared with Morphine at 3 mg/Kg @ 5 min / Mean Analgesia as Compared with Morphine at 3 mg/Kg @ 30 min: hot plate 52° C., dose (mg/kg): Morphine 3, Enkephalin 20, Cetyl 5, DHA 20, Cholesterol 5, Linolenic 10; for analgesic effect as compared to morphine as a baseline: hot plate, time not stated, enkephalin 20 mg/kg. Here is the method:
Adult, male Sprague-Dawley rats weighing 150-175 g were obtained from Charles River Breeding Laboratories (Raleigh, NC) and used for all animal studies. Rats were housed in hanging wire-bottomed cages in a vivarium equipped with a 12:12 light:dark cycle and humidity was maintained between 45-65% with a room temperature of […]. Rats were provided Purina Rodent Chow and tap water ad libitum.
Met-enkephalin-lys SEQ ID NO: 49 and met-enkephalin-lys SEQ ID NO: 1 derivatives were assessed for analgesic activity by rat paw-hot plate assay. Rats were given an injection of naloxone at 0.5 mg/kg (s.c.) then administered a single administration of cetyl-enkephalin SEQ ID NO: 1 by the tail vein 10 minutes later at a dose of 5.0 mg/kg.
In a separate study, rats were administered cetyl-enkephalin SEQ ID NO: 1 (5.0 mg/kg, i.v.) or clonidine (0.125 mg/kg, i.v.).
The latency to rat paw withdrawal from the hot plate was measured by a Hot Plate Analgesia Meter (Harvard Apparatus Ltd., Kent, England). The temperature of the hot plate was set and calibrated at 52° C. and rats were removed from the heat stimulus by 36 seconds after placement. Latency trials were terminated when the animal was either licking a hind paw or initiating a jump from the plate. Baseline measurements were collected 1 hour prior to drug administration and at various times post-injection, dependent upon the study conducted. All hot plate testing was terminated by 1 hour after drug dosing.

The target in the next series is T1, μ-receptor (Rattus norvegicus, UniProt P33535).
T1 construct: assessed for analgesic activity by rat paw-hot plate assay; from tissue; host or cells: whole living rat (in vivo)
T1 sequence (P33535 whole entry, looked up): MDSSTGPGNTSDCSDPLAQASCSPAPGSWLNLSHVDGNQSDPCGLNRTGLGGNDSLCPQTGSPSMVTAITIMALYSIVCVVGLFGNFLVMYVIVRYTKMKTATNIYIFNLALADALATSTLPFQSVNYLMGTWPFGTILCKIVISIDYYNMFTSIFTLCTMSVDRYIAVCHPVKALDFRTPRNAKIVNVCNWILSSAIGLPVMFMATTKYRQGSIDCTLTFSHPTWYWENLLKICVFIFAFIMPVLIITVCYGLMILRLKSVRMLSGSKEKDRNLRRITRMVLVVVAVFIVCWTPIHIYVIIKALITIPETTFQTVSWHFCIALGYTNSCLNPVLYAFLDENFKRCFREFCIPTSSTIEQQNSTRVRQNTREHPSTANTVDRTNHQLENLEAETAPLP
In words: % SPECIFIC BINDING. As to conditions: 0.1 µM. From the text:
Table printed on a drawing sheet, FIG.8
Head of the field: % […] BINDING
First copying reader's note: The title is printed as the top row inside the table frame and is given as the title, not as a grid row.

Series [1] is described as follows: Extraction and detection of enkephalin conjugates from the brain of dosed rats (HPLC). As to conditions: rat brain removed 10 minutes after dosing; 5 mg/kg cetyl-PEG2-enkephalin; compared with standard peak. It is filed as in vivo. Here is the method:
The following procedure was used to identify the presence of conjugate from the brain specimen of animals dosed with 5 mg/kg cetyl-PEG2-enkephalin SEQ ID NO: 1.
After 10 minutes of dosing, the brain of the animal was perfused with 1.5% triflouroacetic acid in PBS solution, and the brain was removed and frosen at −70° C. The brain was homogenized with 1 mL of 1.5% triflouroacetic acid in PBS solution and the homogenate was extracted with acetonitrile/isopropanol solution. The extract was treated with saturated sodium chloride solution and frozen at −20° C. for 2 hours. The organic layer was isolated and centrifuged at 4000 RPM. The supernatant was evaporated and the resulting residue was reconstituted in acetonitrile/isopropanol/water mixture. The reconstituted solution was analyzed by HPLC using a gradient of 10 to 100% isopropanol/water (0.1% trifloiroacetic acid) on a C-18 column. The presence and the concentration of cetyl-PEG2-enkephalin SEQ ID NO: 1 conjugate in the extract were measured by comparing the retention time and the peak area of standard solution under the same analytical condition.

As to `CN1CC[C@]23c4c5ccc(O)c4O[C@H]2[C@@H](O)C=C[C@H]3[C@H]1C5` [Morphine, reference compound], in the series on Sprague-Dawley rats, the “Mean Analgesia as Compared with Morphine at 3 mg/Kg @ 5 min” value was found to be 100% and the “Mean Analgesia as Compared with Morphine at 3 mg/Kg @ 30 min” value is on record as 100%. In the case of “CHOLESTEROL-PEG3-ENK (SEQ ID NO: 1) (YGGFMK; also: cholesterol-PEG3 conjugate, site not given here) [CHOL-ENK]”, in the series with μ-receptor, the “% SPECIFIC BINDING” value is on record as 95%. On to `CCCCCCCCCCCCCCCCOCCOCCOC(=O)NCCCC[C@H](NC(=O)[C@H](CCSC)NC(=O)[C@H](Cc1ccccc1)NC(=O)CNC(=O)CNC(=O)[C@@H](N)Cc1ccc(O)cc1)C(=O)O` [Cetyl-PEG-ENK, CETYL MET-ENKEPHALIN-LYS] (H-YGGFMK(X1)-OH), for which, in series [1], the “Presence of conjugate peak in brain extract (HPLC)” value was “actually present in the brain exact”. As to “PALMITATE-PEG3-ENK (SEQ ID NO: 1) [PALM-ENK]”, the “% SPECIFIC BINDING” value at μ-receptor is on record as 76%.

For the molecule “CETYL-PEG2-ENK (SEQ ID NO: 1) (YGGFMK; also: cetyl-PEG2 conjugate, site not given here) [CETYL-ENK]”, the “% SPECIFIC BINDING” value with μ-receptor was 100%.

Regarding “Met enkephalin-lys (YGGFMK) [reference compound]”, in the series with Sprague-Dawley rats, the “Mean Analgesia as Compared with Morphine at 3 mg/Kg @ 5 min” value stood at 0%, the “Mean Analgesia as Compared with Morphine at 3 mg/Kg @ 30 min” value was determined as 0% and the “analgesic effect as compared to morphine as a baseline” value is 0%. Besides, in series [1], the “Presence of conjugate peak in brain extract (HPLC)” value is “neither the vehicle (FIG. 5C) nor the unconjugated enkephalin SEQ ID NO: 49 (FIG. 5D) showed a corresponding peak”.

In the case of “CETYL-PEG3-ENK (SEQ ID NO: 1) (YGGFMK; also: cetyl-PEG3 conjugate, site not given here) [CETYL-TEG-ENK]”, the “% SPECIFIC BINDING” value with μ-receptor turned out to be 100%. Consider “LINOLEIC MET-ENKEPHALIN-LYS [Linolenic-PEG-ENK]”, for which, in the series with Sprague-Dawley rats, the “Mean Analgesia as Compared with Morphine at 3 mg/Kg @ 5 min” value came out at 77% and the “Mean Analgesia as Compared with Morphine at 3 mg/Kg @ 30 min” value was determined as 73%.

Consider DHA MET-ENKEPHALIN-LYS [DHA-PEG-ENK], for which, in the series on Sprague-Dawley rats, the “Mean Analgesia as Compared with Morphine at 3 mg/Kg @ 5 min” value is recorded as 130%, the “Mean Analgesia as Compared with Morphine at 3 mg/Kg @ 30 min” value amounted to 67% and the “analgesic effect as compared to morphine as a baseline” value turned out to be 130%.

With “DHA-PEG2-ENK (SEQ ID NO: 1) (YGGFMK; also: DHA-PEG2 conjugate, site not given here) [DHA-ENK]”, the “% SPECIFIC BINDING” value with μ-receptor was 63%.
